# T1: PhyB 1–624 fragment (PSM) (Arabidopsis thaliana, UniProt P14713)
# T1 construct: photosensory module (NTE-PAS-GAF-PHY), residues 1-624; N-terminal 6His-TEV tag cut off; E. coli BL21(DE3)
# T1 sequence (P14713 1-624): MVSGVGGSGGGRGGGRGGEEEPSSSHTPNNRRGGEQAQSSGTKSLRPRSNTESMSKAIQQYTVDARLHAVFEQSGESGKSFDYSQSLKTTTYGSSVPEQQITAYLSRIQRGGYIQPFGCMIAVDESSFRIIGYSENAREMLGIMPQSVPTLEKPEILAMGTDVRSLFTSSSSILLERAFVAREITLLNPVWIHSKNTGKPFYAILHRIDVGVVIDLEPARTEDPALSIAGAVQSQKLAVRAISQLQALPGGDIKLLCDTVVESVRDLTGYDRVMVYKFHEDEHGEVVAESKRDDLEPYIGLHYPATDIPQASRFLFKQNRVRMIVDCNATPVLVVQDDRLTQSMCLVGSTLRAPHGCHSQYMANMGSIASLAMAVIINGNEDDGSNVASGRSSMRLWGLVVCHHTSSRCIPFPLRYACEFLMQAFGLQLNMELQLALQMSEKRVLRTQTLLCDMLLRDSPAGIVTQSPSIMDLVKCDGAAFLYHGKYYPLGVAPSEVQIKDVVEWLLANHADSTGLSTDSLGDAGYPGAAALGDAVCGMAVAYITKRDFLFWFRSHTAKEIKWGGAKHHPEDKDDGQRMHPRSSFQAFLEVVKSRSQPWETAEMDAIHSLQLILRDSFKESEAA
# T2: PhyB 1–908 fragment (Arabidopsis thaliana, UniProt P14713)
# T2 construct: residues 1-908 (HKRD removed); N-terminal 6His-TEV tag cut off; E. coli BL21(DE3)
# T2 sequence (P14713 1-908): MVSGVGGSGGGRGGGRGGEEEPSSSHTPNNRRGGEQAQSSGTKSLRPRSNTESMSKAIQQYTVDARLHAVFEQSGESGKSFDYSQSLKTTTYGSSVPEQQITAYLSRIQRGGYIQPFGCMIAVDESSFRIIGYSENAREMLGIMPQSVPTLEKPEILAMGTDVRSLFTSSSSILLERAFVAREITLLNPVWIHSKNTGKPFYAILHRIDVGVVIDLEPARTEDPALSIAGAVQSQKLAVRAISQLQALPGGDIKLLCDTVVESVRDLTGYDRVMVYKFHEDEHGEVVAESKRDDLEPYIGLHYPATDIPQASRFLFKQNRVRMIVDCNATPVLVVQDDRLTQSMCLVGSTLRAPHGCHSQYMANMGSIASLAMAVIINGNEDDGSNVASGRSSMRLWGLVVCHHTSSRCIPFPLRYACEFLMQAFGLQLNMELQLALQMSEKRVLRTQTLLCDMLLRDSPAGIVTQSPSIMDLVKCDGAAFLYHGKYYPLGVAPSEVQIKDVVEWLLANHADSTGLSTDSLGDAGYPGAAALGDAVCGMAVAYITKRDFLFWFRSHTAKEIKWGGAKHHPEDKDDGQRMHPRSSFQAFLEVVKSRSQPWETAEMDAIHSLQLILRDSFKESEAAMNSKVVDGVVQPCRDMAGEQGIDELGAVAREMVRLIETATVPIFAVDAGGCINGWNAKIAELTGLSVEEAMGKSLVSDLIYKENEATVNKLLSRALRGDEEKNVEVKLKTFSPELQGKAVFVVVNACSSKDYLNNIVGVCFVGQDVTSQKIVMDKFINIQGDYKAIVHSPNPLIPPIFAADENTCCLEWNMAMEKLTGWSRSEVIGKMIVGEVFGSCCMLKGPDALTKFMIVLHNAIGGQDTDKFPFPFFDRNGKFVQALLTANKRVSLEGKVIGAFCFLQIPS
# T3: PhyB 1–450 fragment (Arabidopsis thaliana, UniProt P14713)
# T3 construct: NTE-PAS-GAF, residues 1-450; N-terminal 6His-TEV tag cut off; E. coli BL21(DE3)
# T3 sequence (P14713 1-450): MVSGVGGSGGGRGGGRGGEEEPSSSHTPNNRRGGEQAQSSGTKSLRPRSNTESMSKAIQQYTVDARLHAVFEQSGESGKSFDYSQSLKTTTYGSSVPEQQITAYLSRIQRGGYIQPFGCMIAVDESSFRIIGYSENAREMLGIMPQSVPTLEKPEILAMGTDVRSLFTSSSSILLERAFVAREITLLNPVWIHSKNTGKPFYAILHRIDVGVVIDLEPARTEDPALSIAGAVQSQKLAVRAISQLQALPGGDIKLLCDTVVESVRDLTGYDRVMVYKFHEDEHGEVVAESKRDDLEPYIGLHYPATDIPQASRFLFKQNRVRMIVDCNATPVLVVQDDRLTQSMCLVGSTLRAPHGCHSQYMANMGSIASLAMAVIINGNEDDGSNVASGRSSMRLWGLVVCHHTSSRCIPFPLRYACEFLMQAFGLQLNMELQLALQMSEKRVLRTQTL
# T4: full-length (FL) PhyB (Arabidopsis thaliana, UniProt P14713)
# T4 construct: full length, 1172 residues; N-terminal 6His-TEV tag cut off; intron-less gene; E. coli BL21(DE3); homodimer, 320 kDa by SEC
# T4 sequence (P14713 1-1172): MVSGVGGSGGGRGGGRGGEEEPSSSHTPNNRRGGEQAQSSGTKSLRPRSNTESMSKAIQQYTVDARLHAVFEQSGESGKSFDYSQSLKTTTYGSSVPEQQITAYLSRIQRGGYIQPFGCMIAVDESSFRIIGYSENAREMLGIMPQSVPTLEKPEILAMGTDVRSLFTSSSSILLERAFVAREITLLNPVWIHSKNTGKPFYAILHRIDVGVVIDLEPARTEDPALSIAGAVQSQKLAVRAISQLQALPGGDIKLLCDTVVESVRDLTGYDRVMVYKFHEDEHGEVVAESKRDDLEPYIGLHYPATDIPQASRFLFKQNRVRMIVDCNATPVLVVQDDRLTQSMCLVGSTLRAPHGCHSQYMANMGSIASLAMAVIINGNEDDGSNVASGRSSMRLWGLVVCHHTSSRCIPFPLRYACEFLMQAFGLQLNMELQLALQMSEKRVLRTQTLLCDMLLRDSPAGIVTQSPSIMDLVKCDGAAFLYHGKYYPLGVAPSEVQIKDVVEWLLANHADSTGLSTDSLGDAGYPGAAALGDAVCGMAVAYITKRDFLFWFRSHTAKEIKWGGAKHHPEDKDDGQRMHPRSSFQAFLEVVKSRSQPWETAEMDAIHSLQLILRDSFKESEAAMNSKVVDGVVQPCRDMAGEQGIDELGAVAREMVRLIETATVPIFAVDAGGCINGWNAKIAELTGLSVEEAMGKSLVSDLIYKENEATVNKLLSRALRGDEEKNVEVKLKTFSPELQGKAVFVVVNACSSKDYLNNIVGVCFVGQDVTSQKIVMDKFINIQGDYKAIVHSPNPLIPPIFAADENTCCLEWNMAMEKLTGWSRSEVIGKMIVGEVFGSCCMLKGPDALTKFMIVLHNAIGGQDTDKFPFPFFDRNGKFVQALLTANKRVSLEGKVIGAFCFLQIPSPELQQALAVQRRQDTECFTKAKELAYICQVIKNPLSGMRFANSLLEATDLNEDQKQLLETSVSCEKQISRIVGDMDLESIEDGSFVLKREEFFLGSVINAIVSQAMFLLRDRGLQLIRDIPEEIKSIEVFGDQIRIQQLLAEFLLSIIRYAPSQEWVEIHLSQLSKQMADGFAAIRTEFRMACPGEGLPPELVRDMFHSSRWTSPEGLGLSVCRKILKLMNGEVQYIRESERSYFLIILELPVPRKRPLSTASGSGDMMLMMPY
# B1: full-length Arabidopsis thaliana PhyB assembled with PΦB (natural protein, UniProt P14713 1-1172, looked up)
# chain: MVSGVGGSGGGRGGGRGGEEEPSSSHTPNNRRGGEQAQSSGTKSLRPRSNTESMSKAIQQYTVDARLHAVFEQSGESGKSFDYSQSLKTTTYGSSVPEQQITAYLSRIQRGGYIQPFGCMIAVDESSFRIIGYSENAREMLGIMPQSVPTLEKPEILAMGTDVRSLFTSSSSILLERAFVAREITLLNPVWIHSKNTGKPFYAILHRIDVGVVIDLEPARTEDPALSIAGAVQSQKLAVRAISQLQALPGGDIKLLCDTVVESVRDLTGYDRVMVYKFHEDEHGEVVAESKRDDLEPYIGLHYPATDIPQASRFLFKQNRVRMIVDCNATPVLVVQDDRLTQSMCLVGSTLRAPHGCHSQYMANMGSIASLAMAVIINGNEDDGSNVASGRSSMRLWGLVVCHHTSSRCIPFPLRYACEFLMQAFGLQLNMELQLALQMSEKRVLRTQTLLCDMLLRDSPAGIVTQSPSIMDLVKCDGAAFLYHGKYYPLGVAPSEVQIKDVVEWLLANHADSTGLSTDSLGDAGYPGAAALGDAVCGMAVAYITKRDFLFWFRSHTAKEIKWGGAKHHPEDKDDGQRMHPRSSFQAFLEVVKSRSQPWETAEMDAIHSLQLILRDSFKESEAAMNSKVVDGVVQPCRDMAGEQGIDELGAVAREMVRLIETATVPIFAVDAGGCINGWNAKIAELTGLSVEEAMGKSLVSDLIYKENEATVNKLLSRALRGDEEKNVEVKLKTFSPELQGKAVFVVVNACSSKDYLNNIVGVCFVGQDVTSQKIVMDKFINIQGDYKAIVHSPNPLIPPIFAADENTCCLEWNMAMEKLTGWSRSEVIGKMIVGEVFGSCCMLKGPDALTKFMIVLHNAIGGQDTDKFPFPFFDRNGKFVQALLTANKRVSLEGKVIGAFCFLQIPSPELQQALAVQRRQDTECFTKAKELAYICQVIKNPLSGMRFANSLLEATDLNEDQKQLLETSVSCEKQISRIVGDMDLESIEDGSFVLKREEFFLGSVINAIVSQAMFLLRDRGLQLIRDIPEEIKSIEVFGDQIRIQQLLAEFLLSIIRYAPSQEWVEIHLSQLSKQMADGFAAIRTEFRMACPGEGLPPELVRDMFHSSRWTSPEGLGLSVCRKILKLMNGEVQYIRESERSYFLIILELPVPRKRPLSTASGSGDMMLMMPY
# modifications: phytochromobilin (PΦB) covalently bound to the cysteine of the GAF domain
# notes: Phytochrome B (PhyB), Arabidopsis thaliana, full-length 1172-residue polypeptide, from an intron-less PhyB gene designed for recombinant expression; Analysed as Pr; TEV cleavage of the printed tag probably leaves its last G at the N-terminus (surmised); also called FL PhyB; FL
# Experiments:
# [1] = biological target: T1, PhyB 1–624 fragment (PSM); test: assembly in E. coli, zinc-induced fluorescence after SDS-PAGE, UV-Vis absorption; assay type: binding; conditions: covalent; GAF domain cysteine; 25 °C, pH 7.9
# PhyB 1–908 fragment = biological target: T2, PhyB 1–908 fragment; test: as above; assay type: binding; conditions: covalent; GAF domain cysteine; 25 °C, pH 7.9
# PhyB 1–450 fragment = biological target: T3, PhyB 1–450 fragment; test: as above; assay type: binding; conditions: covalent; GAF domain cysteine; 25 °C, pH 7.9
# [2] = biological target: T5, PhyB 100–624 (NTE truncation) (Arabidopsis thaliana, UniProt P14713); test: as above; assay type: binding; conditions: covalent; GAF domain cysteine; 25 °C, pH 7.9
# T5 construct: PSM residues 100-624; N-terminal 6His-TEV tag cut off; E. coli BL21(DE3)
# [3] = biological target: T6, PhyB 90–624 (NTE truncation) (Arabidopsis thaliana, UniProt P14713); test: as above; assay type: binding; conditions: covalent; GAF domain cysteine; 25 °C, pH 7.9
# T6 construct: PSM residues 90-624; N-terminal 6His-TEV tag cut off; E. coli BL21(DE3); 4OUR is an earlier structure of this fragment
# [4] = biological target: T7, PhyB 51–624 (NTE truncation) (Arabidopsis thaliana, UniProt P14713); test: as above; assay type: binding; conditions: covalent; GAF domain cysteine; 25 °C, pH 7.9
# T7 construct: PSM residues 51-624; N-terminal 6His-TEV tag cut off; E. coli BL21(DE3)
# full-length (FL) PhyB = biological target: T4, full-length (FL) PhyB; test: as above; assay type: binding; conditions: covalent; GAF domain cysteine; 25 °C, pH 7.9
# [5] = biological target: the molecule itself; test: SEC; Superdex 200 HR 10/30, 10 °C, 150 mM KCl, 50 mM HEPES-NaOH pH 7.8, 0.3 mM TCEP; samples as Pr at 0.6 mg/ml; apparent mass from size standards; monomer to dimer
Molecule,"assembly in E. coli, zinc-induced fluorescence after SDS-PAGE, UV-Vis absorption [1]","assembly in E. coli, zinc-induced fluorescence after SDS-PAGE, UV-Vis absorption (PhyB 1–908 fragment)","assembly in E. coli, zinc-induced fluorescence after SDS-PAGE, UV-Vis absorption (PhyB 1–450 fragment)","assembly in E. coli, zinc-induced fluorescence after SDS-PAGE, UV-Vis absorption [2]","assembly in E. coli, zinc-induced fluorescence after SDS-PAGE, UV-Vis absorption [3]","assembly in E. coli, zinc-induced fluorescence after SDS-PAGE, UV-Vis absorption [4]","assembly in E. coli, zinc-induced fluorescence after SDS-PAGE, UV-Vis absorption (full-length (FL) PhyB)",stoichiometry N [5]
C=CC1=C(C)/C(=C/C2=NC(=C\c3[nH]c(/C=C4\NC(=O)[C@H](C)\C4=C/C)c(C)c3CCC(=O)O)/C(CCC(=O)O)=C2C)NC1=O [PΦB],The truncations were expressed and assembled with PΦB in Escherichia coli,The truncations were expressed and assembled with PΦB in Escherichia coli,The truncations were expressed and assembled with PΦB in Escherichia coli,"all of the truncations expressed well, efficiently assembled with PΦB, and displayed normal Pr absorption","all of the truncations expressed well, efficiently assembled with PΦB, and displayed normal Pr absorption","all of the truncations expressed well, efficiently assembled with PΦB, and displayed normal Pr absorption",purified chromoproteins were readily obtained with high bilin occupancy and near normal Pr absorption,–
C/C=C1/C(=C/c2[nH]c(/C=C3N=C(/C=C4\NC(=O)C(CC)=C4C)C(C)=C\3CCC(=O)O)c(CCC(=O)O)c2C)NC(=O)[C@@H]1C [PCB],–,–,the fragment assembled with PCB generated as least some of a ‘Pfr’-like state,–,–,–,recombinant PhyB assembled with PCB with efficiencies equal to that seen for PΦB,–
B1,–,–,–,–,–,–,–,2

# Source: PMC5651913, “Photosensing and Thermosensing by Phytochrome B Require Both Proximal and Distal Allosteric Features within the Dimeric Photoreceptor” (Scientific Reports, 2017)
